The results in this text go back to patent publication US8802678B2, “Carbonylated (aza) cyclohexanes as dopamine D3 receptor ligands” (Bioprojet, priority 2006, dated 2014).

pKi: −log10 of the molar value. Counter-ions that a name gives are not always drawn.

One data set addresses human D3 receptor (Homo sapiens, UniProt P35462). Nature of the data set: [3H]spiperone binding, membranes of CHO cells transfected with human D3 receptor cDNA. As to conditions: affinity for the human D3 receptor; [3H]spiperone 0.5-2 nM, CHO-hD3 membranes, 60 minutes at room temperature. The procedure:
Affinity of compounds for the human D3 receptor can be determined by [^3H] spiperone binding CHO cells have been transfected by the cDNA coding for the human D3 receptor (hD3). [^3H]Spiperone (0.5 à 2 nM) binding is performed in the presence of 2.5 to 5 μg of membrane proteins in a medium containing 120 mM NaCl, 5 mM KCl, and 50 mM Tris HCl pH 7.4; incubation for 60 minutes at room temperature is performed. Non specific binding is estimated in the presence of 10 μM haloperidol. Non transfected cells are devoid of any specific binding.

Sequence of human D3 receptor (P35462 whole entry): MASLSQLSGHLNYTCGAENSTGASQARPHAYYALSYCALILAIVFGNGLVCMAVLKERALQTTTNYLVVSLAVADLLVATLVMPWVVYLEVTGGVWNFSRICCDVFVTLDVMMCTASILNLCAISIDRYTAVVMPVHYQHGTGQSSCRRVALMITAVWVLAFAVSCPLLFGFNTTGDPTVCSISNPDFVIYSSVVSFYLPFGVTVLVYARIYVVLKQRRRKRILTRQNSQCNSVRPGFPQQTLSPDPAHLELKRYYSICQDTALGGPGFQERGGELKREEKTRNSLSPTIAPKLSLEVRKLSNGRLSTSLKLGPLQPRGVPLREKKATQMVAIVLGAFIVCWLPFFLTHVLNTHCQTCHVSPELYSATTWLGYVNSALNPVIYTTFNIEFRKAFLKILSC

For the compound `COCC(=O)NC1CCC(CCN2CCC(c3cccc(C(F)(F)F)c3)CC2)CC1` (mixture of isomers) [Example 61, 2-Methoxy-N-(4-{2-[4-(3-trifluoromethylphenyl)piperidin-1-yl]ethyl}cyclohexyl)acetamide trans/cis 95/5], the melting point (as a rule, the temperature, or range, at which the solid turns liquid) stood at 82 °C. Besides, the pKi (commonly −log10 of the Ki, conventionally taken in molar units) on human D3 receptor was 8.07.

For `CC(=O)CC1CCC(CCN2CCN(c3ccccc3F)CC2)CC1.Cl` (mixture of isomers) [Example 288, 1-(4-{2-[4-(2-Fluorophenyl)-piperazin-1-yl]ethyl}cyclohexyl)-propan-2-one, hydrochloride trans/cis 80/20], the melting point lay within 233 to 236 °C. The negative-log Ki (pKi) on human D3 receptor is 8.68.

For `N#CCNC(=O)CC1CCC(CCN2CCN(c3ccccc3F)CC2)CC1` (mixture of isomers) [Example 308, N-Cyanomethyl-2-(4-{2-[4-(2-fluorophenyl)piperazin-1-yl]ethyl}cyclohexyl)acetamide trans/cis 90/10], the melting point is 164 to 167 °C. The compound further showed a negative logarithm of the Ki (pKi) at human D3 receptor of 8.46.

The compound `CC(=O)C(=O)N1CCC(CCN2CCN(c3cccc(C(F)(F)F)c3)CC2)CC1` [Example 2, 1-(4-{2-[4-(3-trifluoromethylphenyl)piperazin-1-yl]ethyl}-piperidin-1-yl)propane-1,2-dione, hydrochloride] gave a negative logarithm of the Ki (pKi) on human D3 receptor of 8.18.

`CC(=O)NCC(=O)N1CCC(CCN2CCN(c3cccc(C(F)(F)F)c3)CC2)CC1` [Example 14, N-[2-Oxo-2-(4-{2-[4-(3-trifluoromethylphenyl)piperazin-1-yl]ethyl}piperidin-1-yl)ethyl]acetamide]: the melting point came to 133 °C. This compound had a pKi on human D3 receptor of 7.82.

Turning to `Cl.N#CCC(=O)N1CCC(CCN2CCN(c3cccc(C(F)(F)F)c3)CC2)CC1` [Example 15, 3-Oxo-3-(4-{2-[4-(3-trifluoromethylphenyl)piperazin-1-yl]ethyl}piperidin-1-yl)propanenitrile, hydrochloride], the melting point was 184 °C. In addition, at human D3 receptor, the pKi is 7.82.

For the compound `COc1ccccc1N1CCN(CCC2CCN(CC(C)=O)CC2)CC1.Cl.Cl` [Example 20, 1-(4-{2-[4-(2-Methoxy-phenyl)piperazin-1-yl]ethyl}piperidin-1-yl)propan-2-one, dihydrochloride], the melting point was 260 °C. The pKi on human D3 receptor is 8.02.

The compound `CC(=O)CN1CCC(CCN2CCN(c3cccc4ccccc34)CC2)CC1.Cl.Cl` [Example 36, 1-{4-[2-(4-Naphthalen-1-ylpiperazin-1-yl)ethyl]piperidin-1-yl}propan-2-one] showed a melting point of 338 °C. Further, at human D3 receptor, the pKi was 8.88.

`O=C(CO)N[C@H]1CC[C@H](CCN2CCN(c3cccc(C(F)(F)F)c3)CC2)CC1` [Example 46, 2-Hydroxy-N-(4-{2-[4-(3-trifluoromethylphenyl)piperazin-1-yl]ethyl}cyclohexyl)acetamide, hydrochloride]: the pKi on human D3 receptor was 7.92.

`COCCCC(=O)N[C@H]1CC[C@H](CCN2CCN(c3cccc(C(F)(F)F)c3C)CC2)CC1` [Example 735, 4-Methoxy-N-(4-{2-[4-(2-methyl-3-trifluoromethylphenyl)piperazin-1-yl]ethyl}cyclohexyl)butanamide] gave a melting point of 173 °C.

`O=C(CCC(F)(F)F)N[C@H]1CC[C@H](CCN2CCN(c3cc(C(F)(F)F)ccc3F)CC2)CC1` [Example 736, 4,4,4-Trifluoro-N-(4-{2-[4-(2-fluoro-5-trifluoromethyl-phenyl)piperazin-1-yl]ethyl}cyclohexyl)butanamide] came in with a melting point of 182 °C.

In turn, `NC(=O)CC(=O)N[C@H]1CC[C@H](CCN2CCN(c3cc(C(F)(F)F)cc(C(F)(F)F)c3)CC2)CC1` [Example 738, N-(4-{2-[4-(3,5-Bistrifluoro-methylphenyl)piperazin-1-yl]ethyl}cyclohexyl)malonamide] showed a melting point of 165 °C.

Compound `COCCCC(=O)N[C@H]1CC[C@H](CCN2CCN(c3cc(F)cc(Cl)c3)CC2)CC1` [Example 740, N-(4-{2-[4-(3-Chloro-5-fluorophenyl)piperazin-1-yl]ethyl}cyclohexyl)-4-methoxybutanamide] returned a melting point of 177 °C.

Consider `COCCCC(=O)N[C@H]1CC[C@H](CCN2CCN(c3cc(C(F)(F)F)cc(C(F)(F)F)c3)CC2)CC1` [Example 741, N-(4-{2-[4-(3,5-Bistrifluoro-methylphenyl)piperazin-1-yl]ethyl}cyclohexyl)-4-methoxybutanamide], for which the melting point was 168 °C.

Regarding `COCC(=O)N[C@H]1CC[C@H](CCN2CCN(c3cc(F)cc(Cl)c3)CC2)CC1` [Example 742, N-(4-{2-[4-(3-Chloro-5-fluorophenyl)piperazin-1-yl]ethyl}cyclohexyl)-2-methoxyacetamide], the melting point came to 132 °C.

The compound `N#CCCC(=O)N[C@H]1CC[C@H](CCN2CCN(c3cc(F)cc(Cl)c3)CC2)CC1` [Example 743, N-(4-{2-[4-(3-Chloro-5-fluorophenyl)piperazin-1-yl]ethyl}cyclohexyl)-3-cyanopropanamide] had a melting point of 148 °C.

`CC(=O)CN1CCC(CCN2CCN(c3cc(F)c(F)cc3F)CC2)CC1` [Example 744, 1-(4-{2-[4-(2,4,5-Trifluoro-phenyl)-piperazin-1-yl]ethyl}piperidin-1-yl)propan-2-one]: the melting point worked out at 68 °C.

In turn, `N#CCCCCC(=O)NC1CCC(CCN2CCN(c3cccc(C(F)(F)F)c3)CC2)CC1` (stereo not drawn) [Example 745, 5-Cyano-pentanoic acid (4-{2-[4-(3-trifluoromethylphenyl)-piperazin-1-yl]ethyl}cyclohexyl) amide] registered a melting point of 90 °C.

Compound `N#CCC(=O)N[C@H]1CC[C@H](CCN2CCN(c3c(F)c(F)c(F)c(F)c3F)CC2)CC1` [Example 753, 2-Cyano-N-{4-[2-(4-pentafluorophenylpiperazin-1-yl)ethyl]cyclohexyl}acetamide] showed a melting point of 202 °C.

In the case of `COCCCC(=O)N[C@H]1CC[C@H](CCN2CCN(c3ccc(F)c(C(F)(F)F)c3)CC2)CC1` [Example 754, N-(4-{2-[4-(4-Fluoro-3-trifluoromethylphenyl)piperazin-1-yl]ethyl}cyclohexyl)-4-methoxybutanamide], the melting point came to 177 °C.

Take `COCCCC(=O)N[C@H]1CC[C@H](CCN2CCN(c3ccc(Cl)c(C(F)(F)F)c3)CC2)CC1` [Example 755, N-(4-{2-[4-(4-Chloro-3-trifluoromethylphenyl)piperazin-1-yl]ethyl}cyclohexyl)-4-methoxybutanamide]: the melting point stood at 171 °C.

For the compound `N#CCCCC(=O)N[C@H]1CC[C@H](CCN2CCN(c3ccc(Cl)c(C(F)(F)F)c3)CC2)CC1` [Example 756, N-(4-{2-[4-(4-Chloro-3-trifluoromethylphenyl)piperazin-1-yl]ethyl}cyclohexyl)-4-cyanobutanamide], the melting point was 126 °C.

`COCCCC(=O)N[C@H]1CC[C@H](CCN2CCN(c3cc(F)cc(C(F)(F)F)c3)CC2)CC1` [Example 757, N-(4-{2-[4-(3-Fluoro-5-trifluoromethylphenyl)piperazin-1-yl]ethyl}cyclohexyl)-4-methoxybutanamide]: the melting point came to 177 °C.

Take `COCC(=O)N[C@H]1CC[C@H](CCN2CCN(c3ccc(F)c(C(F)(F)F)c3)CC2)CC1` [Example 760, N-(4-{2-[4-(4-Fluoro-3-trifluoromethylphenyl)piperazin-1-yl]ethyl}cyclohexyl)-2-methoxyacetamide]: the melting point came to 146 °C.

In turn, `COCCCC(=O)N[C@H]1CC[C@H](CCN2CCN(c3ccc(Cl)cc3Cl)CC2)CC1` [Example 761, N-(4-{2-[4-(2,4-Dichlorophenyl)piperazin-1-yl]ethyl}cyclohexyl)-4-methoxybutanamide] yielded a melting point of 171 °C.

`N#CCCCC(=O)N[C@H]1CC[C@H](CCN2CCN(c3ccc(Cl)cc3Cl)CC2)CC1` [Example 762, 4-Cyano-N-(4-{2-[4-(2,4-dichlorophenyl)piperazin-1-yl]ethyl}cyclohexyl)butanamide]: the melting point was found to be 162 °C.

The compound `N#CC1CC1C(=O)N[C@H]1CC[C@H](CCN2CCN(c3cc(C(F)(F)F)ccc3F)CC2)CC1` (stereo partly drawn) [Example 763, 2-Cyano-cyclopropanecarb-oxylic acid (4-{2-[4-(2-fluoro-5-trifluoromethylphenyl)piperazin-1-yl]ethyl}cyclohexyl) amide] showed a melting point of 196 °C.

In turn, `N#CCCCC(=O)N[C@H]1CC[C@H](CCN2CCN(c3cc(Cl)c(Cl)cc3Cl)CC2)CC1` [Example 764, 4-Cyano-N-(4-{2-[4-(2,4,5-trichlorophenyl)piperazin-1-yl]ethyl}cyclohexyl)butanamide] showed a melting point of 179 °C.

For the compound `N#CCCCC(=O)N[C@H]1CC[C@H](CCN2CCN(c3ccc(Cl)c(Cl)c3Cl)CC2)CC1` [Example 765, 4-Cyano-N-(4-{2-[4-(2,3,4-trichlorophenyl)piperazin-1-yl]ethyl}cyclohexyl)butanamide], the melting point amounted to 176 °C.

As to `CCC(=O)CN1CCC(CCN2CCN(c3cccc(Cl)c3Cl)CC2)CC1` [Example 771], the melting point is 68 °C.

The compound `CON(C)C(=O)CN1CCC(CCN2CCN(c3cccc(C)c3C)CC2)CC1` [Example 772, 2-(4-{2-[4-(2,3-dimethylphenyl)piperazin-1-yl]ethyl}piperidin-1-yl)-N-methoxy-N-methylacetamide] registered a melting point of 66 °C.

`CCOC(=O)Nc1cccc(N2CCN(CCC3CCN(CC(C)=O)CC3)CC2)c1` [Example 777, [3-(4-{2-[1-(2-oxopropyl)piperidin-4-yl]ethyl}piperazin-1-yl)phenyl]carbamic acid ethyl ester]: the melting point was determined as 118 °C.
